Experimental data taken from patent publication US20250052985A1, “SYSTEM AND METHOD FOR QUANTITATIVE PHASE IMAGING FOR MULTI-PARAMETRIC SCREENING OF TUMOR THERAPY RESPONSE” (UNIVERSITY OF UTAH RESEARCH FOUNDATION, priority 2023, published 2025).

How the values were obtained:
Type in all cases: cell-based
HCI-038 PDxO cells = assay: QPI on cells from patient-derived organoid HCI-038 (bone metastasis); conditions: HCI-038
Protocol: In some embodiments, the QPI microscope system 110 performs QPI on cells from patient-derived organoids and direct-from-patient samples. For example, the electronic controller 155 analyzes data on cells from a set of 5 organoids representing samples collected from two patients, as illustrated by a workflow 3400 in FIG. 24. The workflow 3400 is an experiment workflow illustrating how assays are analyzed by the QPI microscope system 110. In some embodiments, the QPI microscope system 110 images cells for 48 h, and uses an automatic segmentation algorithm, via the electronic controller 155, to identify individual cells from background, as shown in images 3405 and 3410 of FIG. 24. […] The electronic controller 155 determines the mass of each cell by summing the cell mass over the segmented area. In some embodiments, plots of mass over time reveal single cell growth rates, as shown by graph 3415 of FIG. 24. The graph 3415 is a mass vs. time plot showing DMSO treated cells growing cells at a typical location. Cells outlined in green are shown as green on the plot, other growing cells are shown in purple. […] In some embodiments, EC50 measured by the QPI microscope system 110 is strongly concordant with gold standard techniques such as CTG over 27 conditions (e.g., 9 compounds, 3 breast cancer cell lines). […]

HCI-039 PDxO cells = assay: QPI on cells from patient-derived organoid HCI-039 (pleural effusion); conditions: HCI-039
Protocol: In some embodiments, the QPI microscope system 110 performs QPI on cells from patient-derived organoids and direct-from-patient samples. For example, the electronic controller 155 analyzes data on cells from a set of 5 organoids representing samples collected from two patients, as illustrated by a workflow 3400 in FIG. 24. The workflow 3400 is an experiment workflow illustrating how assays are analyzed by the QPI microscope system 110. In some embodiments, the QPI microscope system 110 images cells for 48 h, and uses an automatic segmentation algorithm, via the electronic controller 155, to identify individual cells from background, as shown in images 3405 and 3410 of FIG. 24. […] The electronic controller 155 determines the mass of each cell by summing the cell mass over the segmented area. In some embodiments, plots of mass over time reveal single cell growth rates, as shown by graph 3415 of FIG. 24. The graph 3415 is a mass vs. time plot showing DMSO treated cells growing cells at a typical location. Cells outlined in green are shown as green on the plot, other growing cells are shown in purple. The electronic controller 155 determine the specific growth rate (SGR) by fitting a line to time-series mass measurements and normalizing by an initial mass predicted by the fit to account for the effect of cell size on growth rate. The electronic controller 155 fits SGR as a function of dose to a sigmoidal dose response curve using a 3-parameter Hill model to extract dose response measurements, as shown by graph 3420 of FIG. 24. […] In some embodiments, EC50 measured by the QPI microscope system 110 is strongly concordant with gold standard techniques such as CTG over 27 conditions (e.g., 9 compounds, 3 breast cancer cell lines). […] As with cell line data, QPI data on cells from PDxO resolves differences in temporal dynamics of response to therapy, as shown in graph 3425 of FIG. 24. […] In some embodiments, the electronic controller 155 is configured to determine a drug response of each of the plurality of treatment samples from patient derived organoids. […]

HCI-037 PDxO cells = assay: QPI on cells from patient-derived organoid HCI-037 (primary lesion); conditions: HCI-037
Protocol: In some embodiments, the QPI microscope system 110 performs QPI on cells from patient-derived organoids and direct-from-patient samples. For example, the electronic controller 155 analyzes data on cells from a set of 5 organoids representing samples collected from two patients, as illustrated by a workflow 3400 in FIG. 24. The workflow 3400 is an experiment workflow illustrating how assays are analyzed by the QPI microscope system 110. In some embodiments, the QPI microscope system 110 images cells for 48 h, and uses an automatic segmentation algorithm, via the electronic controller 155, to identify individual cells from background, as shown in images 3405 and 3410 of FIG. 24. […] The electronic controller 155 determines the mass of each cell by summing the cell mass over the segmented area. In some embodiments, plots of mass over time reveal single cell growth rates, as shown by graph 3415 of FIG. 24. The graph 3415 is a mass vs. time plot showing DMSO treated cells growing cells at a typical location. Cells outlined in green are shown as green on the plot, other growing cells are shown in purple. The electronic controller 155 determine the specific growth rate (SGR) by fitting a line to time-series mass measurements and normalizing by an initial mass predicted by the fit to account for the effect of cell size on growth rate. The electronic controller 155 fits SGR as a function of dose to a sigmoidal dose response curve using a 3-parameter Hill model to extract dose response measurements, as shown by graph 3420 of FIG. 24. […] In some embodiments, EC50 measured by the QPI microscope system 110 is strongly concordant with gold standard techniques such as CTG over 27 conditions (e.g., 9 compounds, 3 breast cancer cell lines). […] As with cell line data, QPI data on cells from PDxO resolves differences in temporal dynamics of response to therapy, as shown in graph 3425 of FIG. 24. […] In some embodiments, the electronic controller 155 is configured to determine a drug response of each of the plurality of treatment samples from patient derived organoids.
The graphs 3500 includes graph A of the graphs 3500 showing normalized mass vs. time for HCI-037 (primary), HCI-038 (metastatic), and HCI-039 (pleural effusion) showing reduction in growth as concentration increases. Graphs B, C, D, and E of the graphs 3500 show dose response plots showing the differential response between different disease models. Graphs F, G, H, and I of the graphs 3500 show Hellinger distance vs. time plots showing the time of response for the different models treated with various therapies. In some embodiments, HCI-037, HCI-038, and HCI-039, PDxO models are used that are derived from primary lesion, bone metastasis, and pleural effusion, respectively, at different time points from a single patient during the course of treatment and progressive disease. In some embodiments, the electronic controller 155 is configured to determine a difference drug response from patient derived organoids. In some embodiments, the patient derived organoids are tumor organoids.

CC[C@H](NC(=O)[C@H](C)NC)C(=O)N1C[C@@H](O)C[C@H]1Cc1c(-c2[nH]c3cc(F)ccc3c2C[C@@H]2C[C@H](O)CN2C(=O)[C@H](CC)NC(=O)[C@H](C)NC)[nH]c2cc(F)ccc12 [birinapant]
response (HCI-038 PDxO cells): no response
EC50 compared with HCI-037 (HCI-039 PDxO cells): similar
time of response compared with HCI-037 (HCI-039 PDxO cells): much faster time of response
EC50 compared with HCI-039 (HCI-037 PDxO cells): similar
depth of response compared with HCI-039 (HCI-037 PDxO cells): much greater depth of response
